The values that follow come from patent publication US6645755B1, “VECTOR MODIFIED BY SEQUENCE CODING FOR A SEQUENCE OF AMINO ACIDS CONTAINED IN A MAMMALIAN PROTEIN HAVING THE BIOLOGICAL ACTIVITY OF A MEMBRANE RECEPTOR, EXPRESSION OF THIS SEQUENCE IN TRANSFORMED UNICELLULAR CULTURES BY MEANS OF THIS VECTOR, PROCEDURE FOR STUDYING LIGANDS RECOGNIZING THESE RECEPTORS” (Centre National de la Recherche Scientifique, priority 1988, dated 2003).

For assay [1], the system named is Huβ1AR. As to the kind of experiment: Competition binding against ICYP on E. coli expressing Huβ1AR (pSMLβ1). The note with it: ratio of Ki on Huβ1AR and Huβ2AR expressed in E. coli.
Assay [2] deals with mamm. β2AR. The settings on record: reference mammalian tissues; cited from earlier work.
The subject of assay [3] is mamm. β1AR. The note with it: reference mammalian tissues, cited from earlier work; for mamm. β1/β2: Ki ratio.
Assay [4] concerns the target Huβ2AR (Homo sapiens, UniProt P07550). As to the kind of experiment: Competition binding against ICYP on E. coli expressing Huβ2AR (pSMLβ2).
The target of assay [5] is Huβ1AR (Homo sapiens, UniProt P08588). As to the kind of experiment: Competition binding against ICYP on E. coli expressing Huβ1AR (pSMLβ1).
Sequence of Huβ1AR (Homo sapiens, UniProt P08588) (P08588 58-377 limits assumed): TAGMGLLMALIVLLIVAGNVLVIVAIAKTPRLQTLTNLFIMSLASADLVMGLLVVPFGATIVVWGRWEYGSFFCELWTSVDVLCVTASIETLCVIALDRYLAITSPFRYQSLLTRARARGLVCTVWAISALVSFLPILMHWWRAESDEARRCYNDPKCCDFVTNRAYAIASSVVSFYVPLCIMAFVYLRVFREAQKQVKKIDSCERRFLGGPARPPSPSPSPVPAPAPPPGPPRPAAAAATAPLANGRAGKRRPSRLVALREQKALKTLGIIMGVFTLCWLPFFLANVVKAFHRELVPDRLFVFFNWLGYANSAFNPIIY
For assay [6], the target named is T1, human β2-adrenergic receptor (Homo sapiens, UniProt P07550).
T1 construct: extending from the NcoI site to the DraI site which contained the coding region for the human β2-adrenergic receptor; β-galactosidase (lacZ product of λgt11, fused at the EcoRI site near the 3' end of lacZ) (N); linker Asp-Asp-Pro (acid-cleavable) (N); expressed in transfected cells; host or cells: E. coli Y1089 lysogenized with recombinant λgt11
As to the kind of experiment: cell-based. The class given is binding.

Where two headings read alike, the source gives them in different places.

One may read the Ki as the dissociation constant of the complex between target and ligand, obtained from inhibition or displacement. As for `CS(=O)(=O)O.Cn1cc(C(F)(F)F)nc1-c1ccc(OCC(O)CNCCOc2ccc(O)c(C(N)=O)c2)cc1` (centres unmarked) [CGP 20712-A], the “E. coli Kiβ1/Kiβ2” value in assay [1] is listed as 0,0005. The Ki in assay [2] is 982 nM; in assay [3], 3.24 nM. For the same compound, the “mamm. β1/β2” value in assay [3] is 0,003.

For the compound `Cc1ccc(OCC(O)C(C)NC(C)C)c2c1CCC2` (centres unmarked) [ICI 118,551], in assay [3], the “mamm. β1/β2” value is given as 130 and the Ki was 86 nM.

With `OC(CNCC(O)C1CCc2cc(F)ccc2O1)C1CCc2cc(F)ccc2O1` (centres unmarked) [R67555], the Ki in assay [2] was 46 nM; in assay [3] it was 0.9 nM; in assay [4] (read-out: Ki E. coli Huβ2AR, 10 pM ICYP as radioligand, Ki calculated from IC50), 3.83 nM. The “mamm. β1/β2” value in assay [3] is 0,02.

With `CC(C)(C)NCC(O)c1cc(Cl)c(N)c(Cl)c1` (centres unmarked) [clembuterol], the Ki was 37 nM in assay [5] (read-out: Ki E. coli Huβ1AR, 10 pM ICYP as radioligand, Ki calculated from IC50); 14 nM in assay [2]; 71 nM in assay [3]. In addition, in assay [3], the “mamm. β1/β2” value was 5,1.

Take `CNC[C@H](O)c1ccc(O)c(O)c1` [epinephrine]: the Ki is 403 nM in assay [2] and 1900 nM in assay [3]. For the same compound, the “mamm. β1/β2” value in assay [3] was 4,7.

On to `NC[C@H](O)c1ccc(O)c(O)c1` [norepinephrine], for which the Ki in assay [2] is 1880 nM. In addition, in assay [3], the “mamm. β1/β2” value is reported as 1,49 and the inhibition constant Ki is 2800 nM.

`CCC(NC(C)C)C(O)c1ccc(O)c2[nH]c(=O)ccc12` (centres unmarked) [procaterol]: the “E. coli Kiβ1/Kiβ2” value in assay [1] is reported as 84,1. Further, the figures for the Ki in assay [5], in assay [6] and in assay [4] were 4650 nM, 40 ± 8 nM and 55.3 nM, respectively.

Regarding `CC(C)NCC(O)COc1cccc2ccccc12` (centres unmarked) [propranolol], in assay [3], the “mamm. β1/β2” value is recorded as 5,5.

Take `CC(C)(Cc1ccccc1)NCC(O)c1ccc(O)c(NS(C)(=O)=O)c1` (centres unmarked) [zinterol]: in assay [1], the “E. coli Kiβ1/Kiβ2” value is on record as 18,4. For the same compound, the Ki is 168 nM in assay [5], 21 nM in assay [2], 170 nM in assay [3] and 9.14 nM in assay [4]. Besides, the “mamm. β1/β2” value in assay [3] was 8,1.

(−) epinephrine had a Ki in assay [6] of 4700 ± 1400 nM.
